In publication PMC3388080 (PLoS ONE, 2012):

What was measured:
Test in all cases: CEREP radioligand binding
Conditions in all cases: % of control specific binding
MT1 (h) = biological target: T1, MT1 (h) (Homo sapiens, UniProt P48039)
T1 construct: purchased CEREP
Experimental: (§1) SB-334867 was evaluated in a selectivity screen performed at CEREP (Paris, France). The screen consisted of binding assays on a panel of 79 target receptors. The specific binding (SB) of a radioligand to each target receptor was defined as the difference between the total binding and the nonspecific binding determined in the presence of a cold competitor in excess. […] Details on the CEREP screen are available from www.cerep.fr.

D1 (h) = biological target: T2, D1 (h) (Homo sapiens, UniProt P21728)
T2 construct: purchased CEREP
Experimental: as §1

MT2 (h) (agonist site) = biological target: T3, MT2 (h) (agonist site) (Homo sapiens, UniProt P49286)
T3 construct: purchased CEREP
Experimental: as §1

GAL1 (h) = biological target: T4, GAL1 (h) (Homo sapiens, UniProt P47211)
T4 construct: purchased CEREP
Experimental: as §1

5-HT2A (h) = biological target: T5, 5-HT2A (h) (Homo sapiens, UniProt P28223)
T5 construct: purchased CEREP
Experimental: as §1

NK1 (h) = biological target: T6, NK1 (h) (Homo sapiens, UniProt P25103)
T6 construct: purchased CEREP
Experimental: as §1

sst (non-selective) = system: sst (non-selective)
Experimental: as §1

[1] = biological target: T7, mu (h) (MOP) (agonist site) (Homo sapiens, UniProt P35372)
T7 construct: purchased CEREP
Experimental: as §1

BB (non-selective) = system: BB (non-selective)
Experimental: as §1

Y1 (h) = biological target: T8, Y1 (h) (Homo sapiens, UniProt P25929)
T8 construct: purchased CEREP
Experimental: as §1

CCKA (h) (CCK1) = biological target: T9, CCKA (h) (CCK1) (Homo sapiens, UniProt P32238)
T9 construct: purchased CEREP
Experimental: as §1

Y2 (h) = biological target: T10, Y2 (h) (Homo sapiens, UniProt P49146)
T10 construct: purchased CEREP
Experimental: as §1

NK2 (h) = biological target: T11, NK2 (h) (Homo sapiens, UniProt P21452)
T11 construct: purchased CEREP
Experimental: as §1

VIP1 (h) (VPAC1) = biological target: T12, VIP1 (h) (VPAC1) (Homo sapiens, UniProt P32241)
T12 construct: purchased CEREP
Experimental: as §1

DA transporter (h) = biological target: T13, DA transporter (h) (Homo sapiens, UniProt Q01959)
T13 construct: purchased CEREP
Experimental: as §1

beta 2 (h) = biological target: T14, beta 2 (h) (Homo sapiens, UniProt P07550)
T14 construct: purchased CEREP
Experimental: as §1

M3 (h) = biological target: T15, M3 (h) (Homo sapiens, UniProt P20309)
T15 construct: purchased CEREP
Experimental: as §1

PDGF = system: PDGF
Experimental: as §1

5-HT7 (h) = biological target: T16, 5-HT7 (h) (Homo sapiens, UniProt P34969)
T16 construct: purchased CEREP
Experimental: as §1

alpha 1 (non-selective) = system: alpha 1 (non-selective)
Experimental: as §1

TXA2/PGH2 (h) (TP) = biological target: T17, TXA2/PGH2 (h) (TP) (Homo sapiens, UniProt P21731)
T17 construct: purchased CEREP
Experimental: as §1

5-HT3 (h) = biological target: T18, 5-HT3 (h) (Homo sapiens, UniProt P46098)
T18 construct: purchased CEREP
Experimental: as §1

CCKB (h) (CCK2) = biological target: T19, CCKB (h) (CCK2) (Homo sapiens, UniProt P32239)
T19 construct: purchased CEREP
Experimental: as §1

SK+Ca channel = system: SK+Ca channel
Experimental: as §1

MC4 (h) = biological target: T20, MC4 (h) (Homo sapiens, UniProt P32245)
T20 construct: purchased CEREP
Experimental: as §1

AT2 (h) = biological target: T21, AT2 (h) (Homo sapiens, UniProt P50052)
T21 construct: purchased CEREP
Experimental: as §1

P2X = system: P2X
Experimental: as §1

CXCR2 (h) (IL-8B) = biological target: T22, CXCR2 (h) (IL-8B) (Homo sapiens, UniProt P25025)
T22 construct: purchased CEREP
Experimental: as §1

BZD (peripheral) = biological target: T23, BZD (peripheral) (Rattus norvegicus, UniProt P16257)
T23 construct: purchased CEREP
Experimental: as §1

delta 2 (h) (DOP) = biological target: T24, delta 2 (h) (DOP) (Homo sapiens, UniProt P41143)
T24 construct: purchased CEREP
Experimental: as §1

NK3 (h) = biological target: T25, NK3 (h) (Homo sapiens, UniProt P29371)
T25 construct: purchased CEREP
Experimental: as §1

CCR1 (h) = biological target: T26, CCR1 (h) (Homo sapiens, UniProt P32246)
T26 construct: purchased CEREP
Experimental: as §1

beta 1 (h) = biological target: T27, beta 1 (h) (Homo sapiens, UniProt P08588)
T27 construct: purchased CEREP
Experimental: as §1

D3 (h) = biological target: T28, D3 (h) (Homo sapiens, UniProt P35462)
T28 construct: purchased CEREP
Experimental: as §1

CB1 (h) = biological target: T29, CB1 (h) (Homo sapiens, UniProt P21554)
T29 construct: purchased CEREP
Experimental: as §1

H2 (h) = biological target: T30, H2 (h) (Homo sapiens, UniProt P25021)
T30 construct: purchased CEREP
Experimental: as §1

Na+ channel (site 2) = system: Na+ channel (site 2)
Experimental: as §1

M2 (h) = biological target: T31, M2 (h) (Homo sapiens, UniProt P08172)
T31 construct: purchased CEREP
Experimental: as §1

GABA (non-selective) = system: GABA (non-selective)
Experimental: as §1

Cl- channel = system: Cl- channel
Experimental: as §1

ORL1 (h) (NOP) = biological target: T32, ORL1 (h) (NOP) (Homo sapiens, UniProt P41146)
T32 construct: purchased CEREP
Experimental: as §1

kappa (KOP) (guinea-pig) = biological target: T33, kappa (KOP) (guinea-pig) (Cavia porcellus, UniProt P41144)
T33 construct: purchased CEREP
Experimental: as §1

CGRP (h) = biological target: T34, CGRP (h) (Homo sapiens, UniProt O60894+Q16602)
T34 construct: purchased CEREP
Experimental: as §1

T13 sequence (Q01959 whole entry): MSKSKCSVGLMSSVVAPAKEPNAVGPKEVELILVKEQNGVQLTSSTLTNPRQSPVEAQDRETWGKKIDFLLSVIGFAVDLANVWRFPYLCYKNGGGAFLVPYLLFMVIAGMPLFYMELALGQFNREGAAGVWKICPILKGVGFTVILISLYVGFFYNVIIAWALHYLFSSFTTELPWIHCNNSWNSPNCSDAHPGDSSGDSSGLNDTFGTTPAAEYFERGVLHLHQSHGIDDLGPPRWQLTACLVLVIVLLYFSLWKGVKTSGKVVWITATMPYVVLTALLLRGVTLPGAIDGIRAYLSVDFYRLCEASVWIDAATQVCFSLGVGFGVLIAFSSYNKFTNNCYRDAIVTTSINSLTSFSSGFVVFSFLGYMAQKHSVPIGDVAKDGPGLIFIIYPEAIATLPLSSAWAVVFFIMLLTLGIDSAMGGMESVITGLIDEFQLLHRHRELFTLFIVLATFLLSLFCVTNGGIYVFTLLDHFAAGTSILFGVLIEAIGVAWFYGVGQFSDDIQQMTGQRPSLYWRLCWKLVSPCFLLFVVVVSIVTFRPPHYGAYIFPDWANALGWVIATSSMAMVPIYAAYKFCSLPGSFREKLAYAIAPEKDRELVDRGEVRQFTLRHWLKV
T8 sequence (P25929 whole entry): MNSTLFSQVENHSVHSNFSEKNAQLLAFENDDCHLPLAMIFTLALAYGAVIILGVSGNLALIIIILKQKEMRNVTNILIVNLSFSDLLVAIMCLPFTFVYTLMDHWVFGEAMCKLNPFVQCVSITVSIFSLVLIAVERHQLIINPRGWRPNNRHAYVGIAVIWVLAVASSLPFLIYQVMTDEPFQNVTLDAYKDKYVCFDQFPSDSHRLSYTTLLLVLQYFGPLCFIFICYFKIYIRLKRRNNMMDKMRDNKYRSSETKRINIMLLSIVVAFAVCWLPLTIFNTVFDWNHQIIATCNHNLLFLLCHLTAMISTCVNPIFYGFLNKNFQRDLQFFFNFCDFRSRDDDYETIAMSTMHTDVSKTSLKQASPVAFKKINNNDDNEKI
T26 sequence (P32246 whole entry): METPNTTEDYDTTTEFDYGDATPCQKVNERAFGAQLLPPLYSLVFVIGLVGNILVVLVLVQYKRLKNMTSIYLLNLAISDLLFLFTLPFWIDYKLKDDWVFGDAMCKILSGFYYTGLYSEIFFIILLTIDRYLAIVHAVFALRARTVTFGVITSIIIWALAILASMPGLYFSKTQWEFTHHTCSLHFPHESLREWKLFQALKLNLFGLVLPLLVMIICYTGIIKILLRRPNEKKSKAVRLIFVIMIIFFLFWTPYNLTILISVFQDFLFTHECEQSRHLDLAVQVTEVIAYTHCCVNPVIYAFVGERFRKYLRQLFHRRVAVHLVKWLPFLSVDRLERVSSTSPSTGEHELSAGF
T16 sequence (P34969 whole entry): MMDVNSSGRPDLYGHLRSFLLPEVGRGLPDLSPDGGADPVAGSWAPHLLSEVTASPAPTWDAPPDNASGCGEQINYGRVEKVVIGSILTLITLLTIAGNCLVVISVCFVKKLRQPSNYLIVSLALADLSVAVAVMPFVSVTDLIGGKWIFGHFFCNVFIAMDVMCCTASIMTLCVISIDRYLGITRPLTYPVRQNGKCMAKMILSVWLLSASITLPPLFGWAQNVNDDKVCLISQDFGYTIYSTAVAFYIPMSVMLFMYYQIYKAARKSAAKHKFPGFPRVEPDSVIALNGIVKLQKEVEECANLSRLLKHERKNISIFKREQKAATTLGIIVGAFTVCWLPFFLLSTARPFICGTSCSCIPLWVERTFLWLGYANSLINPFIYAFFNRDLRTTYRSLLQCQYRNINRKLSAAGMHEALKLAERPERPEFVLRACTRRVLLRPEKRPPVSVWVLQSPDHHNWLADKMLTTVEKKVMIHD
T27 sequence (P08588 whole entry): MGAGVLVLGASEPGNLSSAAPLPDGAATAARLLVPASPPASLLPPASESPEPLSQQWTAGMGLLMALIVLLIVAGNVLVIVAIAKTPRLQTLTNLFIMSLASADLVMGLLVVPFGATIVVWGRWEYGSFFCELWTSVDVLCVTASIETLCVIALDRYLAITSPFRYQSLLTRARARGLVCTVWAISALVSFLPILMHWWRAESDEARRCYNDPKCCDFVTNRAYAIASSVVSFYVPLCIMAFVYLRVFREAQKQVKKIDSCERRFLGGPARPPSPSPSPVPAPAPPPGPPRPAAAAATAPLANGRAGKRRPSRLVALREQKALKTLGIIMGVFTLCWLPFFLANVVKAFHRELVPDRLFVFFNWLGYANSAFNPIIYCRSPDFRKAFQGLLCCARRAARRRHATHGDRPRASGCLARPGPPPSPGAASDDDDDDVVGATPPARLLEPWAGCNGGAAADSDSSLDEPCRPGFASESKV
T34 sequence (Q16602 23-461): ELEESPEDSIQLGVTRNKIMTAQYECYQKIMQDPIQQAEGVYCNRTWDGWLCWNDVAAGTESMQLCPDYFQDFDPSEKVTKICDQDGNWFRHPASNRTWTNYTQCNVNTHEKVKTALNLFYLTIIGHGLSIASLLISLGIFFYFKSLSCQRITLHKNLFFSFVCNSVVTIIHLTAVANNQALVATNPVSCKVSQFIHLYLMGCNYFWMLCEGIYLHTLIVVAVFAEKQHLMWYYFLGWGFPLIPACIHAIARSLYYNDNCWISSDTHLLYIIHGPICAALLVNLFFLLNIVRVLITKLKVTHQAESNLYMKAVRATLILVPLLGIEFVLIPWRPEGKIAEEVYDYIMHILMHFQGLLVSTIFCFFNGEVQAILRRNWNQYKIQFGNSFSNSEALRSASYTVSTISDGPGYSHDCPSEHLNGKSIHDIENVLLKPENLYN
T34 sequence (O60894 27-148): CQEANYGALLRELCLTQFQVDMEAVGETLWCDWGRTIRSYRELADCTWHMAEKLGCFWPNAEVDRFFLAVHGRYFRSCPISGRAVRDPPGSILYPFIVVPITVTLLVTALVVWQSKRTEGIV
T28 sequence (P35462 whole entry): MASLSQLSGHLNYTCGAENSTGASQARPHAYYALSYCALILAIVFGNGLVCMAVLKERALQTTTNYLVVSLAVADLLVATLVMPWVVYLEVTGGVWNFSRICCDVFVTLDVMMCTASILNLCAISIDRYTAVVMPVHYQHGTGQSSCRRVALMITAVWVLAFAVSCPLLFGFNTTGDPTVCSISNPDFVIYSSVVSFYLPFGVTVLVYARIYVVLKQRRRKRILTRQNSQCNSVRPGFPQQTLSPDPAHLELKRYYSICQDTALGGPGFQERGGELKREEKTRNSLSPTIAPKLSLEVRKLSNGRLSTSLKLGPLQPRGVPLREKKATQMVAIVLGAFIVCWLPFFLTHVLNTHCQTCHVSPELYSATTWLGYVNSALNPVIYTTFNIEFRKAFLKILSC
T23 sequence (P16257 whole entry): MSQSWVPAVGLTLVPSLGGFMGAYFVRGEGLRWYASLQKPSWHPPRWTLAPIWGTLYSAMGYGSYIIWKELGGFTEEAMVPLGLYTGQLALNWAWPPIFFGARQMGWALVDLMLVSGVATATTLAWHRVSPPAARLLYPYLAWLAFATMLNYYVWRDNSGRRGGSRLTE
T33 sequence (P41144 whole entry): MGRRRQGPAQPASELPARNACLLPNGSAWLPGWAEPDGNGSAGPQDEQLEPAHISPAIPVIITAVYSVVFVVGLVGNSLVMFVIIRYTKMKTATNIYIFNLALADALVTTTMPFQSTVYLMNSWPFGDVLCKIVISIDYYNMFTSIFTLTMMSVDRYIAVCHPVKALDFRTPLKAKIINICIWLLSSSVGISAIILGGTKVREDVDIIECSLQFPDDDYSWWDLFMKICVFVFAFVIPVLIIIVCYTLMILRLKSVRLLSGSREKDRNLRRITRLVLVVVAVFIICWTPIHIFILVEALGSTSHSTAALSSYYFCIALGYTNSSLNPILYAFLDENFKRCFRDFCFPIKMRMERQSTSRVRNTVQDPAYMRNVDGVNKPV
T24 sequence (P41143 whole entry): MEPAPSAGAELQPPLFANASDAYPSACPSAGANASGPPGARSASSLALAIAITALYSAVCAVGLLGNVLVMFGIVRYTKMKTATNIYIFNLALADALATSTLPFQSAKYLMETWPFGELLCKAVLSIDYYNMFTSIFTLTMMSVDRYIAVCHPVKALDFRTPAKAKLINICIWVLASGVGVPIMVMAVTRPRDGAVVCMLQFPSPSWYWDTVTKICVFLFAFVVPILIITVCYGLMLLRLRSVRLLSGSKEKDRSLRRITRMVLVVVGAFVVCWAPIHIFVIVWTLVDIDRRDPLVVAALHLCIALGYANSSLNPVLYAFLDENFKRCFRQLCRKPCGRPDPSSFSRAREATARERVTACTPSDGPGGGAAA
T25 sequence (P29371 whole entry): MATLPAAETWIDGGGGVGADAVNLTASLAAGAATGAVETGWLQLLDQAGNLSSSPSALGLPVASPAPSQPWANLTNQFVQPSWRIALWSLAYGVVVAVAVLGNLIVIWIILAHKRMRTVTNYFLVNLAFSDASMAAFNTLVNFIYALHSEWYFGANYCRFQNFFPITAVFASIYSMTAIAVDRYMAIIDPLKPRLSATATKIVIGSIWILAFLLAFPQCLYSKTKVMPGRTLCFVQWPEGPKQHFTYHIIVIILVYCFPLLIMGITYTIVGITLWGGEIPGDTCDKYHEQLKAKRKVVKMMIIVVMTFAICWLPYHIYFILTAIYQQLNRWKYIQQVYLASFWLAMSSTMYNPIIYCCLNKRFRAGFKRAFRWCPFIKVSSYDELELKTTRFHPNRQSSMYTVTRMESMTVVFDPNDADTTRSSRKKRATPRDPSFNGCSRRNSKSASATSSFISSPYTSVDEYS

## Cc1nc2ccc(NC(=O)Nc3ccnc4cccnc34)cc2o1.Cl [SB-334867, 1-(2-methylbenzoxazol-6-yl)-3-[1], [5]naphthyridin-4-yl-urea hydrochloride]
MT1 (h)
  % Control (10 µM) Mean SB: 102.4%
D1 (h)
  % Control (10 µM) Mean SB: 82.7%
MT2 (h) (agonist site)
  % Control (10 µM) Mean SB: 98.6%
GAL1 (h)
  % Control (10 µM) Mean SB: 118.5%
5-HT2A (h)
  % Control (10 µM) Mean SB: 89.5%
NK1 (h)
  % Control (10 µM) Mean SB: 104.4%
Sst (non-selective)
  % Control (10 µM) Mean SB: 88.9%
[1]
  % Control (10 µM) Mean SB: 86.3%
BB (non-selective)
  % Control (10 µM) Mean SB: 109.9%
Y1 (h)
  % Control (10 µM) Mean SB: 102.7%
CCKA (h) (CCK1)
  % Control (10 µM) Mean SB: 108.8%
Y2 (h)
  % Control (10 µM) Mean SB: 113%
NK2 (h)
  % Control (10 µM) Mean SB: 96%
VIP1 (h) (VPAC1)
  % Control (10 µM) Mean SB: 101%
DA transporter (h)
  % Control (10 µM) Mean SB: 72.4%
Beta 2 (h)
  % Control (10 µM) Mean SB: 94.6%
M3 (h)
  % Control (10 µM) Mean SB: 73.1%
PDGF
  % Control (10 µM) Mean SB: 102.6%
5-HT7 (h)
  % Control (10 µM) Mean SB: 99.9%
Alpha 1 (non-selective)
  % Control (10 µM) Mean SB: 87.5%
TXA2/PGH2 (h) (TP)
  % Control (10 µM) Mean SB: 98.8%
5-HT3 (h)
  % Control (10 µM) Mean SB: 93.9%
CCKB (h) (CCK2)
  % Control (10 µM) Mean SB: 135.1%
SK+Ca channel
  % Control (10 µM) Mean SB: 114.4%
MC4 (h)
  % Control (10 µM) Mean SB: 97.9%
AT2 (h)
  % Control (10 µM) Mean SB: 114.4%
P2X
  % Control (10 µM) Mean SB: 94.9%
CXCR2 (h) (IL-8B)
  % Control (10 µM) Mean SB: 110.5%
BZD (peripheral)
  % Control (10 µM) Mean SB: 109.3%
Delta 2 (h) (DOP)
  % Control (10 µM) Mean SB: 86.1%
NK3 (h)
  % Control (10 µM) Mean SB: 86.3%
CCR1 (h)
  % Control (10 µM) Mean SB: 94.5%
Beta 1 (h)
  % Control (10 µM) Mean SB: 85.7%
D3 (h)
  % Control (10 µM) Mean SB: 97.1%
CB1 (h)
  % Control (10 µM) Mean SB: 104.1%
H2 (h)
  % Control (10 µM) Mean SB: 86.6%
Na+ channel (site 2)
  % Control (10 µM) Mean SB: 62.8%
M2 (h)
  % Control (10 µM) Mean SB: 87.3%
GABA (non-selective)
  % Control (10 µM) Mean SB: 105.5%
Cl- channel
  % Control (10 µM) Mean SB: 90.6%
ORL1 (h) (NOP)
  % Control (10 µM) Mean SB: 102.9%
Kappa (KOP) (guinea-pig)
  % Control (10 µM) Mean SB: 100.8%
CGRP (h)
  % Control (10 µM) Mean SB: 103.6%
